Data taken from ChEMBL document CHEMBL3045993, “Expedient synthesis of some novel pregnane derivatives and their evaluation as anti-oxidant and anti-dyslipidemic agents” (2011).

Legend:
Assay type in all cases: functional
Rattus norvegicus [1] = experiment: Antidyslipidemic activity in Rattus norvegicus Charles Foster (rat) assessed as activation of post heparin lipolytic activity at 400 mg/kg, po after 18 hr relative to control
[2] = Antioxidant activity assessed as inhibition of xanthine oxidase-mediated superoxide anion release at 100 ug/ml after 30 min relative to control
Liver microsome = experiment: Antioxidant activity in Rattus norvegicus (rat) liver microsomes assessed as inhibition of lipid peroxidation at 100 ug/ml after 90 min by thiobarbuteric acid method
[3] = Antioxidant activity assessed as inhibition of hydroxy radical generation at 100 ug/ml after 90 min by thiobarbuteric acid method
Rattus norvegicus [4] = experiment: Antidyslipidemic activity in high fat diet fed Rattus norvegicus Charles Foster (rat) assessed as inhibition of cholesterol-induced phospholipid level in plasma at 100 mg/kg, po administered QD for 30 days relative to control; details: 720 h
Rattus norvegicus [5] = experiment: Antidyslipidemic activity in high fat diet fed Rattus norvegicus Charles Foster (rat) assessed as activation of liver phopholipase at 100 mg/kg, po administered QD for 30 days relative to control
Rattus norvegicus [6] = experiment: Antidyslipidemic activity in high fat diet fed Rattus norvegicus Charles Foster (rat) assessed as activation of cholesterol acyltransferase in plasma at 100 mg/kg, po administered QD for 30 days relative to control
Rattus norvegicus [7] = experiment: Antidyslipidemic activity in Rattus norvegicus Charles Foster (rat) assessed as inhibition of triton WR1339-induced phospholipid in plasma at 100 mg/kg, po after 18 hr relative to control
Rattus norvegicus [8] = experiment: Antidyslipidemic activity in Rattus norvegicus Charles Foster (rat) assessed as inhibition of triton WR1339-induced total cholesterol in plasma at 100 mg/kg, po after 18 hr relative to control; details: read-out: INH
Rattus norvegicus [9] = experiment: Antidyslipidemic activity in Rattus norvegicus Charles Foster (rat) assessed as inhibition of triton WR1339-induced triglyceride in plasma at 100 mg/kg, po after 18 hr relative to control
Rattus norvegicus [10] = experiment: Antidyslipidemic activity in Rattus norvegicus Charles Foster (rat) assessed as activation of post heparin lipolytic activity at 100 mg/kg, po after 18 hr relative to control

C/C(=N\OC(C)C)C1=CC[C@H]2[C@@H]3CC=C4C[C@@H](O)CC[C@]4(C)[C@H]3CC[C@]12C
Activity (Rattus norvegicus [1]): 23%
inhibition [2]: -9%

CC(=O)[C@@]1(O)[C@H](OCCO)C[C@H]2[C@@H]3CC=C4C[C@@H](O)CC[C@]4(C)[C@H]3CC[C@@]21C [3BETA,17ALPHA-DIHYDROXY-16ALPHA-(2-HYDROXY ETHOXY)PREGN-5-EN-20-ONE]
Activity (Rattus norvegicus [1]): 21%

COCCO[C@@H]1C[C@H]2[C@@H]3CC=C4C[C@@H](O)CC[C@]4(C)[C@H]3CC[C@]2(C)[C@H]1[C@H](C)O [3BETA,20BETA-DIHYDROXY-16ALPHA-(2-METHOXY ETHOXY)-PREGN-5-EN]
Activity (Rattus norvegicus [1]): 17%
inhibition (Liver microsome): -10%

C[C@H](O)[C@H]1[C@H](OCCOCCO)C[C@H]2[C@@H]3CC=C4C[C@@H](O)CC[C@]4(C)[C@H]3CC[C@]12C [3BETA,20BETA-DIHYDROXY-16ALPHA-[2(2-HYDROXYETHOXY)-ETHOXY]-PREGN-5-EN]
Activity (Rattus norvegicus [1]): 17%

CC(=O)OC(C)CO[C@@H]1C[C@H]2[C@@H]3CC=C4C[C@@H](OC(C)=O)CC[C@]4(C)[C@H]3CC[C@]2(C)[C@H]1C(C)=O (stereo partly drawn) [3BETA-ACETOXY-16ALPHA-(2-ACETOXY PROPOXY)-PREGN-5-EN-20-ONE]
Activity (Rattus norvegicus [1]): 13%
inhibition [3]: -9%

COCCO[C@@H]1C[C@H]2[C@@H]3CC=C4C[C@@H](OC(C)=O)CC[C@]4(C)[C@H]3CC[C@]2(C)[C@H]1C(C)=O [3BETA-ACETOXY-16ALPHA-(2-METHOXY ETHOXY)-PREGN-5-EN-20-ONE]
Activity (Rattus norvegicus [1]): 18%

CC(=O)OCCOCCO[C@@H]1C[C@H]2[C@@H]3CC=C4C[C@@H](OC(C)=O)CC[C@]4(C)[C@H]3CC[C@]2(C)[C@H]1C(C)=O [3BETA-ACETOXY-16ALPHA-[2(2-ACETOXY ETHOXY)-ETHOXY]-PREGN-5-EN-20-ONE]
inhibition in vivo at 100 mg/kg (Rattus norvegicus [4]): -22%
Activity (Rattus norvegicus [1]): 23%
Activity (Rattus norvegicus [5]): 15%
Activity (Rattus norvegicus [6]): 20%

CC(=O)[C@H]1[C@H](c2cc(F)ccc2N)C[C@H]2[C@@H]3CC=C4C[C@@H](O)CC[C@]4(C)[C@H]3CC[C@@]21C [3BETA-HYDROXY-16ALPHA-(2-AMINO-5-FLUORO-PHENYL)-PREGN-5-EN-20-ONE]
inhibition in vivo at 100 mg/kg (Rattus norvegicus [4]): -21%
Activity (Rattus norvegicus [1]): 24%
Activity (Rattus norvegicus [5]): 27%
Activity (Rattus norvegicus [6]): 28%

CC(=O)[C@H]1[C@H](OCC(C)O)C[C@H]2[C@@H]3CC=C4C[C@@H](O)CC[C@]4(C)[C@H]3CC[C@@]21C (stereo partly drawn) [3BETA-HYDROXY-16ALPHA-(2-HYDROXY PROPOXY)PREGN-5-EN-20-ONE]
Activity (Rattus norvegicus [1]): 21%

CC(=O)[C@H]1[C@H](Nc2ccc(Cl)cc2)C[C@H]2[C@@H]3CC=C4C[C@@H](O)CC[C@]4(C)[C@H]3CC[C@@]21C [3BETA-HYDROXY-16ALPHA-(4-CHLORO PHENYLAMINO)-PREGN-5-EN-20-ONE]
inhibition in vivo at 100 mg/kg (Rattus norvegicus [4]): -25%
Activity (Rattus norvegicus [1]): 31%
Activity (Rattus norvegicus [5]): 18%
inhibition (Liver microsome): -8%
Activity (Rattus norvegicus [6]): 23%

CC(=O)[C@H]1[C@H](OCCOCCO)C[C@H]2[C@@H]3CC=C4C[C@@H](O)CC[C@]4(C)[C@H]3CC[C@@]21C [3BETA-HYDROXY-16ALPHA-[2(2-HYDROXY ETHOXY)-ETHOXY]PREGN-5-EN-20-ONE]
Activity (Rattus norvegicus [1]): 17%

COCCO[C@@H]1C[C@H]2[C@@H]3CC=C4C[C@@H](O)CC[C@]4(C)[C@H]3CC[C@]2(C)[C@H]1C(C)=O [3BETA-HYDROXY-16ALPHAA-(2-METHOXYETHOXY)PREGN-5-EN-20-ONE]
Activity (Rattus norvegicus [1]): 18%

Cc1ccc(C)c(OCCCC(C)(C)C(=O)O)c1 [GEMFIBROZIL]
inhibition in vivo at 100 mg/kg (Rattus norvegicus [4]): -31%
Activity (Rattus norvegicus [5]): 33%
inhibition in vivo at 100 mg/kg (Rattus norvegicus [7]): -34%
inhibition in vivo at 100 mg/kg (Rattus norvegicus [8]): 36%
inhibition in vivo at 100 mg/kg (Rattus norvegicus [9]): 36%
Activity (Rattus norvegicus [10]): 32%
Activity (Rattus norvegicus [6]): 31%
